“And” between values parts separate entries of the source, which are not always exact repeats. Equal entries are not always repeated. Marks after values point to notes of the source that are not given here.
Assays:
[1] = test system: ischemic brain damage in rats; conditions: 60 mg/kg and 30 mg/kg, 3 and 7 hours after reperfusion; cited from earlier work
[2] = test system: liver and pancrea cells; test: Pro/antiapoptosis properties, electrophoresis of DNA fragments; type: in vivo; conditions: intact male Wistar rats; 50 mg/kg
Protocol: The assessment of pro/antiapoptotosis properties of substances was carried in intact male rats of Wistar line. The test substance were administered for 2 weeks by means of a probe in aqueous suspension containing Tween-80 at a dose of 50 mg/kg of body weight. The animals were euthanized by cervical vertebrae translocation 24 hours after the experiment. The identification of apoptosis of liver and pancrea cells was performed using electrophoretic method. […] Cell necrosis conditioned the “smeared” nature of DNA migration zone. The luminescence band of intact DNA was in the starting area.
The expression of apoptosis manifestations was assessed by registration of DNA fragments via electrophoresis.

[3] = test system: rats with intracerebral hemorrhage; test: Lethality of rats with intracerebral hemorrhage of average severity; type: in vivo
Protocol: The chosen model allows to reproduce clinical pattern of […] and is adequate for clinical study of potential neuroprotective agents.
As comparators the following drugs were used: mexydol (“Mexydol” UC Pharmasoft, Russia), 100 mg/kg; citicoline (“Somazina” Ferrer International, SA, Spain), 250 mg/kg; aktovegin (“Aktovegin”, Nycomed, Austria), 16 mg/kg pyracetam (“Pyracetam” Darnitsa, Ukraine), 400 mg/kg. According to the latest clinical guidelines regarding the treatment of patients with CVA approved by the Ministry of Health of Ukraine (Order No. 602 dated 3 Aug. 2012), all these drugs are allowed to be included into schemes for intensive patients therapy with CVA as neuroprotective agents. They were used at recommended doses for preclinical studies (McGrow C. P. Experimental Cerebral Infarction Effects of Pentobarbital in Mongolian Gerbils/C. P. McGrow//Arch. Neurol.-1977.-Vol. 34, No. 6.-P. 334-336). Experimental therapy of acute cerebral ischemia with SI-86 compound and comparator started 1 hour after IUD once a day for 21 days. […] Reference drugs were injected intraperitoneally (ip). Rats of control pathology group were injected by autoblood and as therapy 0.9% NaCI solution was administered calculated for 2 ml/kg iv.
Pseudo-operated rats were exposed to all interventions (anesthesia, craniotomy) excluding autoblood administration that leveled traumatic impact of experimental conditions.
(§1) Evaluation of the ability of animals to learn and memorize of aversive stimulus was examined in the test of conditioned response of passive avoidance (CRPA). The technique is based on innate rat instinct to limited shadowy space. The study in rats was conducted in two-compartment unit consisted of two sections—light and dark. An animal was arranged into light compartment, fixing latency time for entering into the dark compartment, wherein rat received current irritation and ran in the light compartment. CRPA retention was tested every other day under latency time change of rat entering into the dark compartment. Also the number of animals was noted not fully entered the dark chamber. Cerebroprotective efficiency criteria of studied compounds were also animal death term (days) and their mortality rate (in %).
Quantitative data were processed using statistical StatPlus 2009 processing. The statistical significance of differences was assessed by Fisher's angular transformation (lethality outcome), also parametric t Student criterion were used in case of normal distribution of variation series, nonparametric W White criterion—in its absence.

[4] = test system: rats with intracerebral hemorrhage; test: Neurological deficit (C. P. McGrow stroke-index scale) in rats with intracerebral hemorrhage; type: in vivo; conditions: n = 15
Protocol: (§2) Neuroprotective effect of 3,2′-spiro-pyrrolo-2-oxindole derivative (SI-86 compound) was studied on IUD model of moderate severity modeled under propofol anesthesia (60 mg/kg intraperitoneally (ip)) by autoblood administration into the brain internal capsule (stereotactic coordinates of the projection: H=7.0 mm, L=3.0 mm, A=1.5 mm from bregma) ([…]) (Method for reproduction of intracerebral hemorrhage in rats/O. K. Yarosh, S. V. Kyrychenko, S. P. Halimonchyk [et al.]//Circulation and hemostasis.-2005.-No. 1.-P. 77-81). The chosen model allows to reproduce clinical pattern of […] and is adequate for clinical study of potential neuroprotective agents.
(§3) As comparators the following drugs were used: mexydol (“Mexydol” UC Pharmasoft, Russia), 100 mg/kg; citicoline (“Somazina” Ferrer International, SA, Spain), 250 mg/kg; aktovegin (“Aktovegin”, Nycomed, Austria), 16 mg/kg pyracetam (“Pyracetam” Darnitsa, Ukraine), 400 mg/kg. According to the latest clinical guidelines regarding the treatment of patients with CVA approved by the Ministry of Health of Ukraine (Order No. 602 dated 3 Aug. 2012), all these drugs are allowed to be included into schemes for intensive patients therapy with CVA as neuroprotective agents. They were used at recommended doses for preclinical studies (McGrow C. P. Experimental Cerebral Infarction Effects of Pentobarbital in Mongolian Gerbils/C. P. McGrow//Arch. Neurol.-1977.-Vol. 34, No. 6.-P. 334-336). Experimental therapy of acute cerebral ischemia with SI-86 compound and comparator started 1 hour after IUD once a day for 21 days. The SI-86 derivative was investigated in conventionally effective dose of 10 mg/kg […] (iv)-dose that according to the results of our previous study provides maximum antihypoxic activity of SI-86 compound. Reference drugs were injected intraperitoneally (ip). Rats of control pathology group were injected by autoblood and as therapy 0.9% NaCI solution was administered calculated for 2 ml/kg […].
Neurological deficit in animals with acute CVA respectively in acute (4th day) and recovery (21 st day) periods was measured on C. P. McGrow stroke-index scale. The state severity was determined by amount of relevant points: to 3 points-mild, 3 to 7 points-average, above 7 points-severe degree. Pareses, paralyses of limbs, tremors, circus movement, ptoses, lateral positions, ability of rats to be maintained at the core of 15 cm diameter, rotating at the rate of 3 rpm were noted. The animals were tested daily by displaying the amount of points:
one-sided semi-ptosis—0.5 points; one-sided ptosis—1 point; tremor—0.5 points; circus movements—0.5 points; pareses of limbs (for each limb)—1 point; paralyses of limbs (for each limb)—2 points; lateral position—3 points; disability to maintain on rotating rod during 4 minutes—3 points.

[5] = test system: rats with intracerebral hemorrhage; test: Conditioned response of passive avoidance (CRPA) in rats with intracerebral hemorrhage; type: in vivo; conditions: 21st day, n = 15
Protocol: as §2, §3, §1

[6] = test system: rats; test: Acute normobaric hypoxic hypoxia with hypercapnia (ANHHH), life duration; type: in vivo; conditions: preventive administration; SI-86 and SI-108 10 mg/kg iv, mexydol 100 mg/kg ip
Protocol: The study of antihypoxic activity of 10 original derivatives of 3,2′-spiro-pyrrolo-2-oxindole was conducted on models of acute normobaric hypoxic hypoxia with hypercapnia (ANHHH) and acute asphyxia. ANHHH was modeled by means of rat arrangement into isolated pressure compartments (0.001 m^3). The observation conducted until the death of the animals. The antihypoxic activity was assessed by life duration (in minutes) in relation to the control taken as 100%, by the formula AA=tt/tk×100%, wherein AA—antihypoxic activity (%), tt—life duration of test animals, tc—life duration of control animals.
(§4) The preliminary screening of test substances was performed on ANHHH model. All derivatives were administered in the same dose of 10 mg/kg […] (iv) 1 hour prior to pathological state modeling. […] The effectiveness of a leader compound was evaluated at doses 5; 10 and 15 mg/kg iv. Mexydol was chosen as a reference drug having antihypoxic action in combination with antioxidant and membrane protective activity, which is successfully used in patients with CVA and IM. Mexydol was administered intraperitoneally (ip) at a dose of 100 mg/kg according to similar scheme.

[7] = test system: rat heart bioelectrical activity; test: Acute asphyxia, duration of heart bioelectrical activity; type: in vivo, rats; conditions: 100 mg/kg ip
Protocol: Acute asphyxia was modeled in rats anesthetized with propofol (60 mg/kg) intraperitoneally (ip) by complete clamping the trachea at electrocardiogram (EGC) registration. The antihypoxic effect was evaluated by duration of heart bioelectric activity (HBA). This model allows to estimate the heart sensitivity to hypoxia. An isoelectric ECG line for 1 minute considered as HBA termination, the pint of HBA termination corresponded to the last QRS complex on the ECG. The calculation of […] activity was performed by the above formula considering a point of last QRS complex registration as a lifetime.
as §4

[8] = 12 h, SI-86 10 mg/kg iv, mexydol 100, citocoline 250, actovegin 16, pyracetam 400 mg/kg

Cc1c(Cl)cccc1S(=O)(=O)Nc1nc(CC(=O)N2CCN(C)CC2)cs1.Cl [BVT-2733, 3-chloro-2-methyl-N-(4-(2-(4-methylpiperazin-1-yl)-2-oxoethyl)thiazol-2-yl)benzenesulfonamide hydrochloride]
amount of ischemic brain damage [1]: reduced the amount of ischemic brain damage

CCSCC[C@@H]1N[C@@]2(C(=O)Nc3ccccc32)[C@@H]2C(=O)N(c3ccc(C)cc3)C(=O)[C@H]12 [SI-34, 5′-(4-Methylphenyl)-3′-[2-(ethylthio)ethyl]-3a′,6a′-dihydro-2′H-spiro[indole-3, 1′-pyrrolo[3,4-c]pyrrol]-2,4′,6′(1H,3H′,5H′)-trione]
level of apoptosis [2]: closed to that of control group

CCc1nc(C)ccc1O.O=C(O)CCC(=O)O [mexydol]
Lethality, % [3, 8]: 0/0%*^# | Lethality, abs. [3, 8]: 0/0%*^# | Lethality, abs. ([3]; 24 h, same doses): 0/0%*^# | cerebroprotective protection ([3]; 24 h observation, SI-86 10, mexydol 100, citicoline 250 mg/kg): 100% | Lethality, % ([3]; 48 h, same doses): 7.9% | Lethality, abs. ([3]; 48 h, same doses): 3 | Lethality, % ([3]; 72 h, same doses): 10.5% | Lethality, abs. ([3]; 72 h, same doses): 4 | Lethality, % ([3]; 96 h, same doses): 13.2% | Lethality, abs. ([3]; 96 h, same doses): 5 | reduction of mortality in rats at the end of the observation period relative to control ([3]; within 4 days of therapy, same doses): 17.2% | neurological deficit, average point under C. P. McGrow scale ([4]; day 4, SI-86 10 mg/kg iv, mexydol 100, citocoline 250, actovegin 16, pyracetam 400 mg/kg ip): 4.30 ± 0.25°*^#•$ points | neurological deficit, average point under C. P. McGrow scale ([4]; day 21, same doses): 3.8 points and 3.80 ± 0.21°*^#•$ points | Latent period for entrance into dark compartment, prior study ([5]; SI-86 10 mg/kg iv, mexydol 100, citocoline 250, actovegin 16, pyracetam 400 mg/kg ip): 11.30 ± 0.47°*^#$ s | Latent period for entrance into dark compartment, 24 hours after study ([5]; same doses): 106.80 ± 2.77°*^#•$ s | increase of life duration in rats in relation to control [6]: 80.2% | Antihypoxic activity [7]: +50.9% | Duration of heart bioelectrical activity [7]: 17.5 ± 0.5 min

Source: patent US20160297828A1, “SPIROCYCLIC COMPOUNDS CONTAINING SPIRO[INDOLYL-3,1'-PYRROLO[3,4-C]PYRROLE] CORE AND SULPHUR-CONTAINING AMINO ACID RESIDUES” (priority 2013, published 2016)
